Test results from EP4793274A1, “SALT AND CRYSTAL FORM OF KIF18A INHIBITOR COMPOUND, PREPARATION METHOD THEREFOR AND USE THEREOF” (Hubei Bio-Pharmaceutical Industrial Technological Institute …, priority 2023, dated 2025).
Where a name gives a salt, the structure may show the parent alone.

How the values were obtained:
[1] = Dynamic solubility at 37 °C in H2O, SGF, FaSSIF and FeSSIF (HPLC concentration, pH of filtrate, XRPD of residual solid); type: physicochemical; conditions: listed as Crystal form A of maleate; for S: solubility: feeding concentration 10 mg/mL; for FC: crystal form change: XRPD of residual solid; for pH: pH of filtrate
Protocol: 0.82 mL of glacial acetic acid and 1.18 g of NaCl were added to a 100 mL volumetric flask and completely dissolved by addition of purified water.
The solubility of each sample in H2O, SGF, FaSSIF, and FeSSIF was determined at different time points (1 h, 2 h, 4 h, and 24 h). […] 137-156. […] Table C-2. Summary of dynamic solubility test results at 37 °C

[2] = Hygroscopicity by dynamic vapor sorption (DVS); type: physicochemical; conditions: 25 °C/80% RH
Protocol: Dynamic vapor sorption (DVS) curves were acquired on a DVS IntrInsic from Surface Measurement Systems (SMS). The relative humidity at 25 °C was corrected with the deliquescence points of LiCl, Mg(NO3)2, and KCl. Table A-5. DVS test parameters
The percentage changes in mass of the samples when the humidity changed (0% RH to 95% RH) at a constant temperature of 25 °C were collected. 157-166.

[3] = Solid state stability (XRPD and HPLC purity); type: physicochemical
Source text: 167-171. […] Table C-3. Summary of solid state stability evaluation

[4] = Solubility at room temperature in water, SGF and FaSSIF (HPLC concentration, pH of filtrate, XRPD of residual solid); conditions: listed as Crystal form A of maleate; for S: solubility: feeding concentration 1 mg/mL; for pH: pH of filtrate
Protocol: 100 mg of NaCl and 50 mg of Triton X-100 were weighed into a 50 mL volumetric flask and then completely dissolved by addition of purified water. 816 µL of 1 M hydrochloric acid was added, and the pH was adjusted to 1.8 with 1 M hydrochloric acid or 1 M NaOH solution. The mixed solution was brought to the volume by addition of purified water.
340 mg of anhydrous NaH2PO4 and 620 mg of NaCl were weighed into a 100 mL volumetric flask, and then completely dissolved by addition of purified water. 55.44 µL of a 50% NaOH solution was then added, and the pH was adjusted to 6.5 with 1 M hydrochloric acid or 1 M NaOH solution. The mixed solution was brought to the volume by addition of purified water. Subsequently, 110 mg of SIF powder was weighed into a 50 mL volumetric flask and completely dissolved in the solution described above, and the mixed solution was brought to the volume.
Solids at a feeding concentration of 1 mg/mL (calculated based on free crystal form) were rotationally mixed with corresponding vehicles at room temperature. […] After sampling at each time point, the samples were centrifuged (at 10000 rpm) and filtered (through a 0.22 µm PTFE filter head), the HPLC concentrations and pH values of the filtrates were determined, and the centrifuged solid samples were subjected to XRPD analysis.

[5] = 80 °C/sealed, 1 day, listed as Crystal form A of maleate

In the case of `Cc1cc(-c2cnn(-c3ccc(NS(=O)(=O)CCO)cc3N3CCC4(CC3)CC4)c2)nc(N2CCC(F)(F)CC2)n1` [crystal form A of the maleate], the “S: solubility” value ([1]; FaSSIF, 1 h, 60 min) is reported as 62.7 µg/mL, the “S: solubility” value ([1]; FaSSIF, 2 h, 120 min) is reported as 48.9 µg/mL and the “S: solubility” value ([1]; FaSSIF, 4 h, 240 min) is reported as 39.7 µg/mL. For the same molecule, the “S: solubility” value ([1]; FaSSIF, 24 h, 1440 min) was 25.3 µg/mL, the “S: solubility” value ([1]; FeSSIF, 1 h, 60 min) was 202.5 µg/mL and the “S: solubility” value ([1]; FeSSIF, 2 h, 120 min) was 182.4 µg/mL. For the same molecule, the “S: solubility” value ([1]; FeSSIF, 4 h, 240 min) was 169.5 µg/mL, the “S: solubility” value ([1]; FeSSIF, 24 h, 1440 min) was 94 µg/mL and the “S: solubility” value ([1]; H2O, 1 h, 60 min) was 13.9 µg/mL. For the same molecule, the “S: solubility” value ([1]; H2O, 2 h, 120 min) was 9.8 µg/mL, the “S: solubility” value ([1]; H2O, 4 h, 240 min) was 5.2 µg/mL and the “S: solubility” value ([1]; H2O, 24 h, 1440 min) was 0.9 µg/mL. The “S: solubility” value ([1]; SGF, 1 h, 60 min) was 79.5 µg/mL, the “S: solubility” value ([1]; SGF, 2 h, 120 min) was 71.8 µg/mL and the “S: solubility” value ([1]; SGF, 4 h, 240 min) was 57.9 µg/mL. For the same molecule, the “S: solubility” value ([1]; SGF, 24 h, 1440 min) was 11.1 µg/mL, the “FC: crystal form change” value ([1]; FaSSIF, 1 h) was “Yes” and the “FC: crystal form change” value ([1]; FaSSIF, 2 h) was “Yes”. The “FC: crystal form change” value ([1]; FaSSIF, 4 h) was “Yes”, the “FC: crystal form change” value ([1]; FaSSIF, 24 h) was “Yes” and the “FC: crystal form change” value ([1]; FeSSIF, 1 h) was “Yes”. For the same molecule, the “FC: crystal form change” value ([1]; FeSSIF, 2 h) was “Yes”, the “FC: crystal form change” value ([1]; FeSSIF, 4 h) was “Yes” and the “FC: crystal form change” value ([1]; FeSSIF, 24 h) was “Yes”. The “FC: crystal form change” value ([1]; H2O, 1 h) was “Yes”, the “FC: crystal form change” value ([1]; H2O, 2 h) was “Yes” and the “FC: crystal form change” value ([1]; H2O, 4 h) was “Yes”. The “FC: crystal form change” value ([1]; H2O, 24 h) was “Yes”, the “FC: crystal form change” value ([1]; SGF, 1 h) was “Yes” and the “FC: crystal form change” value ([1]; SGF, 2 h) was “Yes”. The “FC: crystal form change” value ([1]; SGF, 4 h) was “Yes”, the “FC: crystal form change” value ([1]; SGF, 24 h) was “Yes” and the pH ([1]; FaSSIF, 1 h) was 2.94. The pH ([1]; FaSSIF, 2 h) was 2.90, the pH ([1]; FaSSIF, 4 h) was 2.90 and the pH ([1]; FaSSIF, 24 h) was 2.90. The pH ([1]; FeSSIF, 1 h) was 4.66, the pH ([1]; FeSSIF, 2 h) was 4.68 and the pH ([1]; FeSSIF, 4 h) was 4.67. It also gave a pH ([1]; FeSSIF, 24 h) of 4.70, a pH ([1]; H2O, 1 h) of 2.00 and a pH ([1]; H2O, 2 h) of 2.05. The pH ([1]; H2O, 4 h) was 1.98, the pH ([1]; H2O, 24 h) was 2.03 and the pH ([1]; SGF, 1 h) was 1.55. It also gave a pH ([1]; SGF, 2 h) of 1.57, a pH ([1]; SGF, 4 h) of 1.54 and a pH ([1]; SGF, 24 h) of 1.58. For the same molecule, the vapor sorption values [2] was 0.235%, the “HPLC results Relative to starting (%)” value ([3]; 25 °C/60% RH/open, 1 week) was 100.0% and the “HPLC results Purity (area%)” value ([3]; 25 °C/60% RH/open, 1 week, listed as Crystal form A of maleate) was 98.26 area%. The “HPLC results Relative to starting (%)” value ([3]; 40 °C/75% RH/open, 1 week) was 100.0%, the “HPLC results Purity (area%)” value ([3]; 40 °C/75% RH/open, 1 week, listed as Crystal form A of maleate) was 98.30 area% and the “HPLC results Purity (area%)” value [3, 5] was 98.08 area%. For the same molecule, the “HPLC results Relative to starting (%)” value [3, 5] was 99.8%, the “HPLC results Purity (area%)” value ([3]; Starting, listed as Crystal form A of maleate) was 98.29 area% and the Crystal form ([3]; XRPD after 25 °C/60% RH/open, 1 week, listed as Crystal form A of maleate) was “Crystal form A of maleate”. For the same molecule, the Crystal form ([3]; XRPD after 40 °C/75% RH/open, 1 week, listed as Crystal form A of maleate) was “Crystal form A of maleate”, the Crystal form ([3]; XRPD after 80 °C/sealed, 1 day, listed as Crystal form A of maleate) was “Crystal form A of maleate” and the “S: solubility” value ([4]; FaSSIF, 2 h, 120 min) was 126.8 µg/mL. The “S: solubility” value ([4]; FaSSIF, 24 h, 1440 min) was 47.9 µg/mL, the “S: solubility” value ([4]; H2O, 24 h, 1440 min) was 0.3 µg/mL and the “S: solubility” value ([4]; SGF, 2 h, 120 min) was 51.2 µg/mL. The “S: solubility” value ([4]; SGF, 24 h, 1440 min) was 36.6 µg/mL, the pH ([4]; FaSSIF, 2 h) was 6.4 and the pH ([4]; FaSSIF, 24 h) was 6.2.
